Results reported in patent US20230339991A1, “HYPOXIA-ACTIVATED DNA ALKYLATING AGENT AND MEDICAL USE THEREOF” (ASCENTAWITS PHARMACEUTICALS, LTD., priority 2020, published 2023).
Read-outs that look alike come from different tables or passages of the source.

Assays:
[1] = Liver microsome stability, mouse; conditions: for Remaining percentage after 30 minutes: Mouse
Description: (§1) 1) Two individual experiments were performed.
(§2) 1a) With NADPH: 10 μL of 20 mg/mL liver microsomes and 40 μL of 10 mM NADPH were added to the culture solution. The final concentrations of microsomes and NADPH were 0.5 mg/mL and 1 mM, respectively.
(§3) 1b) Without NADPH: 10 μL of 20 mg/mL liver microsomes and 40 μL of ultrapure H2O were added to the culture solution. The final concentration of microsomes was 0.5 mg/mL.
(§4) 3) 50 μL of aliquots were taken from the reaction solution at 0 min and 30 min. The reaction was terminated by adding 4 volumes of cold acetonitrile and four internal standards (IS, 100 nM alprazolam, 200 nM caffeine, 200 nM labetalol and 2 μM ketoprofen). The samples were centrifuged at 3, 220×g for 40 min. The aliquots of 100 μL of supernatant were mixed with 100 μL of ultrapure H2O and then used for LC-MS/MS analysis. All experiments were performed in duplicate.

[2] = Liver microsome stability, rat; conditions: for Remaining percentage after 30 minutes: Rat
Description: as §1, §2, §3, §4

[3] = test system: hepatoma cell HepG2; experiment: Hypoxia-dependent proliferation inhibition, HepG2; type: cell-based, human; conditions: for IC50: Homo sapiens; for HCR (hypoxic cytotoxicity ratio): IC50 ratio normoxia/N2
Excerpt: (§5) To determine the effect of the drug A according to the present invention on cancer cell proliferation, the antiproliferative activity of these compounds against the cancer cell was detected in a porous CTG-based assay. The effects of test compounds on cell proliferation under normoxic (21% O2) and hypoxic (<0.01% O2) conditions were compared. H460 cells were routinely cultured to 80%-90% of cell saturation, and when the number reached the requirement, resuspended with the corresponding culture medium, counted and prepared into cell suspension with appropriate density. The cell suspension was added to two types of 24-well plates, 495 μL per well with 1×10^4/well of cell density. 24-well plates inserted with glass insert were used for hypoxic tests, and ordinary plastic 24-well plates were used for normoxic tests. 5 μL of each compound was added to the hypoxic and normoxic reaction systems, respectively. After reacting for 3 hours in the hypoxic workstation or the normoxic incubator, the compounds were washed away using the culture medium and the system was placed in an incubator for another 72 hours. The final concentrations of each compound tested under normoxic conditions were as follows: TH-302 was 1000, 200, 40, 8, 1.6, 0.32 μM; test compound A (compound 32) was 1000, 200, 40, 8, 1.6, 0.32 μM; compound 26 was 500, 50, 5, 0.5, 0.05 μM. The final concentrations of each compound tested under hypoxic conditions were as follows: TH-302 was 10, 2, 0.4, 0.08, 0.016, 0.0032 μM; test compound A (compound 32) was 50, 5, 0.5, 0.05, 0.005, 0.0005 μM; compound 26 was 500, 50, 5, 0.5, 0.05 μM. After 72 hours of cell culture, 300 μL of culture medium was removed from each well of 24-well plate. 50 μL of CTG was added into each well. The plate was mixed and shaked for 2 min, and kept in dark for 15 minutes at room temperature. 100 μL per well of culture medium was transferred from 24-well plate to 96-well white plate, and the chemiluminescence signal value was read with Multifunctional enzyme marker with a reading time of 1000 ms. The IC50 was calculated using GraphPad Prism 5 software. […] The compound TH-302 (a hypoxic-activated prodrug entering phase III clinical studies, cas No. 918633-87-1, see the literature Sun J D, Liu Q, Wang J, et al. Selective tumor hypoxia targeting by hypoxia-activated prodrug TH-302 inhibits tumor growth in preclinical models of cancer. [J]. Clinical Cancer Research An Official Journal of the American Association for Cancer Research, 2012, 18(3): 758-70, structural formula is
Similarly, the above-mentioned three compounds were tested for the proliferation inhibition effect on hepatoma cell HepG2, and the results are shown in the following table 5.

[4] = Liver microsome stability, human; conditions: for Remaining percentage after 30 minutes: Human
Description: as §1, §2, §3, §4

[5] = Liver microsome stability, dog; conditions: for Remaining percentage after 30 minutes: Dog
Description: as §1, §2, §3, §4

[6] = test system: H460 cancer cells; experiment: Hypoxia-dependent proliferation inhibition, H460, CTG; type: cell-based, human; conditions: for IC50: Homo sapiens, 3 h exposure
Excerpt: as §5, with “formula is […]” for “formula is”

[7] = N2 (hypoxic), read-out: IC50 N2
[8] = normoxia, read-out: IC50 Normoxia
[9] = NCI-H460, hypoxic (<0.01% O2), read-out: N2 IC50
[10] = NCI-H460, normoxic (21% O2), read-out: Normoxic IC50

CC(OP(=O)(N1CC1)N1CC1)c1ccc([N+](=O)[O-])c2ccccc12 (stereo not drawn) [Compound D]
Remaining percentage after 30 minutes ([1]; with NADPH): 32.37%
Remaining percentage after 30 minutes ([1]; without NADPH): 96.37%
Remaining percentage after 30 minutes ([2]; with NADPH): 6.81%
Remaining percentage after 30 minutes ([2]; without NADPH): 103.00%
IC50 [3, 7]: 1.5 µM
IC50 [3, 8]: 16.7 µM
HCR (hypoxic cytotoxicity ratio) [3]: 11.13
Remaining percentage after 30 minutes ([4]; with NADPH, 2 μM): 74.28%
Remaining percentage after 30 minutes ([4]; without NADPH): 107.67%
Remaining percentage after 30 minutes ([5]; with NADPH): 9.97%
Remaining percentage after 30 minutes ([5]; without NADPH): 99.10%
IC50 ratio: Normoxia/N2 [6]: 20
IC50 [6, 9]: 40 nM
IC50 [6, 10]: 800 nM

O=[N+]([O-])c1ccc(C(OP(=O)(N2CC2)N2CC2)C(F)(F)F)c2ccccc12 (racemic) [Compound A]
stability in liver microsomes ([1]; mouse): relatively stable
stability in liver microsomes ([2]; rat): not stable
IC50 [3, 7]: 4.78 µM
IC50 [3, 8]: 20.6 µM
HCR (hypoxic cytotoxicity ratio) [3]: 4.31
stability in liver microsomes ([4]; human): relatively stable
stability in liver microsomes ([5]; canine): not stable
IC50 ratio: Normoxia/N2 [6]: 12.5
IC50 [6, 9]: 40 nM

Cn1c(COP(=O)(NCCBr)NCCBr)cnc1[N+](=O)[O-] [TH-302, Evofosfamide]
IC50 [3, 7]: 12.4 µM
IC50 [3, 8]: 918 µM
HCR (hypoxic cytotoxicity ratio) [3]: 72.82
IC50 ratio: Normoxia/N2 [6]: 680
IC50 [6, 9]: 20 nM
IC50 [6, 10]: 13600 nM

O=[N+]([O-])c1ccc([C@@H](OP(=O)(N2CC2)N2CC2)C(F)(F)F)c2ccccc12 (single isomer, unassigned) [Compound C]
Remaining percentage after 30 minutes ([1]; with NADPH): 102.89%
Remaining percentage after 30 minutes ([1]; without NADPH): 103.07%
Remaining percentage after 30 minutes ([2]; with NADPH): 71.05%
Remaining percentage after 30 minutes ([2]; without NADPH): 111.15%
Remaining percentage after 30 minutes ([4]; without NADPH): 82.15%
Remaining percentage after 30 minutes ([5]; with NADPH): 31.16%
Remaining percentage after 30 minutes ([5]; without NADPH): 101.62%
